Results as given in patent US11337963B2, “Compositions and methods of enhancing 5-hydroxytryptophan bioavailability” (Duke University, priority 2018, dated 2022).
Like-named read-outs stand apart in the source and are kept apart here.

Experiments:
brain 5-HIAA = assay: Brain (frontal cortex) 5-HIAA tissue levels in mice after 14 days of treatment; format: in vivo; conditions: for augmentation of the brain 5-HIAA tissue elevation induced by 5-HTP: carbidopa 2, 5 or 10 mg/kg/day added to 5-HTP 200 mg/kg/day, more pronounced in 5-HTHypo mice
From the text: (§1) Mice: Adult mice were used, both wildtype (WT) mice with normal 5-HT levels and ‘5-HTHypo’ mice with reduced brain 5-HT synthesis and levels (Beaulieu et al, 2008). The 5-HTHypo mice are a naturalistic model of brain 5-HT deficiency, which is known to be a pathogenic factor in several CNS disorders, e.g. depression and suicide.
(§2) Drug treatments: Carbidopa was used as a PDI. To model oral drug delivery occurring in humans during a therapeutic scenario, 5-HTP and carbidopa was delivered via the mouse food (standard chow). This approach distributed the drug delivery over time, imparting a measure of ‘slow-release’ (aka sustained-, extended-, time-, controlled-release) delivery. 5-HTP was administered in a dose of 200 mg/kg/day. Carbidopa was administered in doses of 2, 5 or 10 mg/kg/day in addition to 5-HTP, to assess the effect of carbidopa on the outcomes of 5-HTP treatment. To assess the effect of carbidopa alone, groups of mice were also administered carbidopa 10 mg/kg/day, the highest carbidopa dose, without concomitant 5-HTP. Comparisons were made to untreated mice. Duration of all treatments was 14 days, which is considered chronic in mouse experiments.
(§3) Sample collection: During treatments blood samples were collected to assess plasma levels of 5-HTP and carbidopa. At end of treatments mice were euthanized and brain tissues (frontal cortex) were collected.
(§4) Quantitative analysis: Levels of plasma 5-HTP, plasma carbidopa, brain 5-HT, and brain 5-hydroxyindoleacetic acid (5-HIAA, major 5-HT metabolite) were quantified using HPLC, as described (Jacobsen et al, 2012b). The limits of detection for 5-HT and 5-HTP in plasma were 1 ng/ml and for carbidopa in plasma 2 ng/ml (FIG. 4C).

[1] = cited from earlier work
brain 5-HT = assay: Brain (frontal cortex) 5-HT tissue levels in mice after 14 days of treatment; format: in vivo; conditions: for augmentation of the brain 5-HT tissue elevation induced by 5-HTP: carbidopa 2, 5 or 10 mg/kg/day added to 5-HTP 200 mg/kg/day, more pronounced in 5-HTHypo mice
From the text: as §1, §2, §3, §4

[2] = animal studies (Shindo et al, 1977); cited from earlier work
[3] = Plasma 5-HTP levels in mice given 5-HTP and/or carbidopa via food for 14 days; format: in vivo; conditions: for augmentation of the 5-HTP plasma elevation induced by 5-HTP: carbidopa 2, 5 or 10 mg/kg/day added to 5-HTP 200 mg/kg/day, similar in WT and 5-HTHypo mice
From the text: as §1, §2, §3, §4

[4] = animals; including kidney insufficiency and growth anomalies; cited from earlier work
[5] = tested on: aromatic amino acid decarboxylase enzyme (AAAD); conditions: after oral administration (Da Prada et al, 1987); cited from earlier work
[6] = cited from earlier work; remark: listed apart in the source
[7] = HPLC electrochemical quantification of carbidopa in mouse plasma; format: in vivo, mice
Protocol: FIG. 4A-4D. HPLC electrochemical quantification of carbidopa in plasma. FIG. 4A: 10 ng/ml standard in perchloric acid. Carbidopa peak visible at 24 min. FIG. 4B: Plasma extract from mouse not treated with carbidopa. […] Baseline undulations at 24 min is detector noise. FIG. 4C: Plasma extract from a mouse not treated with carbidopa, but the plasma spiked with carbidopa to a concentration of 2 ng/ml prior to extraction. Carbidopa peak visible at 24 min. FIG. 4D: Plasma extract from mouse treated with 10 mg/kg/day carbidopa. […] Baseline undulations at 24 min is detector noise, as indicated.
as §2, §3, §4

[8] = Carbidopa plasma levels in humans at therapeutic doses (literature); format: in vivo; conditions: reported human chronic studies with carbidopa and 5-HTP; extrapolated across references
[9] = 5-HTP 200 mg/kg/day alone via food, 14 days, vs untreated
[10] = carbidopa 10 mg/kg/day alone, without 5-HTP, 14 days
[11] = steady state, therapeutic scenario

Structure (SMILES): N[C@@H](Cc1c[nH]c2ccc(O)cc12)C(=O)O [5-HTP, 5-hydroxytryptophan]
- levels of brain 5-HIAA (brain 5-HIAA; [9]): elevated
- oral bioavailability ([1]; 5-HTP (Gijsman et al, 2002)): modest
- T1/2 (elimination half-life) ([1]; 5-HTP in humans, oral): ~2 h
- TMax ([1]; 5-HTP in humans, oral): ~1 h
- T1/2 ([1]; immediate-release oral 5-HTP): about 2 hours
- TMax ([1]; immediate-release oral 5-HTP): 1 to 2 h
- levels of brain 5-HT (brain 5-HT; [9]): elevated
- exogenously administered 5-HTP converted to 5-HT during transport over the intestinal wall [2]: more than 50%
- levels of plasma 5-HTP ([3]; 5-HTP 200 mg/kg/day alone via food, 14 days, vs untreated, WT and 5-HTHypo mice): elevated

Structure (SMILES): NC(CO)C(=O)NNCc1ccc(O)c(O)c1O (centres unmarked) [benserazide]
- toxicity of chronic PDI treatment without levodopa [4]: significant toxic effects
- potency as inhibitor of AAAD in the peripheral organs relative to carbidopa [5]: 10 fold

Structure (SMILES): C[C@@](Cc1ccc(O)c(O)c1)(NN)C(=O)O [carbidopa]
- effect on brain 5-HIAA (brain 5-HIAA; [10]): no effects
- augmentation of the brain 5-HIAA tissue elevation induced by 5-HTP (brain 5-HIAA): manifold and dose-dependently augmented
- augmentation of the brain 5-HIAA tissue elevation induced by 5-HTP (brain 5-HIAA; listed as Carbidopa): dose-dependently augmented
- effect on brain 5-HT (brain 5-HT; [10]): no effects
- augmentation of the brain 5-HT tissue elevation induced by 5-HTP (brain 5-HT): manifold and dose-dependently augmented
- augmentation of the brain 5-HT tissue elevation induced by 5-HTP (brain 5-HT; listed as Carbidopa): dose-dependently augmented
- usual systemically active plasma levels ([6]; Verhagen et al, 2015, Yeh et al, 1989): 25 ng/mL
- average plasma levels of carbidopa at maintenance doses [6, 11]: ≥ 25 ng/mL
- range of average plasma levels of carbidopa at maintenance doses [6, 11]: 25 to 150 ng/mL
- plasma carbidopa levels ([7]; carbidopa 10 mg/kg/day, the highest dose, limit of detection 2 ng/ml): < 2 ng/mL
- carbidopa peak in HPLC of plasma extract (FIG. 4D) ([7]; mouse treated with 10 mg/kg/day carbidopa): No carbidopa peak visible
- plasma exposure levels lower than usual systemically active levels ([7]; relative to 25 ng/ml): at least 12 times
- enhancing 5-HTP bioavailability and pharmacodynamic (brain 5-HT) effects ([3]; 5-HTP:carbidopa ratios of 20:1 to 100:1): effective
- effect on plasma 5-HTP [3, 10]: no effects
- augmentation of the 5-HTP plasma elevation induced by 5-HTP [3]: manifold and dose-dependently augmented
- augmentation of the 5-HTP plasma elevation induced by 5-HTP ([3]; listed as Carbidopa): dose-dependently augmented
- average carbidopa plasma levels [8]: > 25 ng/mL
- toxicity of chronic PDI treatment without levodopa [4]: significant toxic effects
